# Measurements as given in patent publication US11541010B2, “Amphoteric liposomes comprising imino lipids” (BioNTech Delivery Technologies GmbH, priority 2009, dated 2023).
# “Also recorded” adds a separate entry of the source.
# How the values were obtained:
# Type in all cases: cell-based
# HeLa cells [1] = experiment: Serum resistant transfection, cationic lipids with phosphate lipid DOPA, HeLa IC50 (Example 15); details: liposomes of the cationic lipid in combination with phosphate lipid DOPA, PLK-1 siRNA
# Experimental: (§1) HeLa cells were obtained from DSMZ (German Collection of Micro Organism and Cell Cultures) and maintained in DMFM (Gibco-Invitrogen) and supplemented with 10% FCS. The cells were plated at a density of 2.5×10^4 cells/ml and cultivated in 100 μl medium at 37° C. under 5% CO2. After 16 h, the liposomes containing siRNA were diluted and 10 μl were added to the cells to yield final concentrations between 0.4 to 100 nM Plk1 or scrambled siRNA; 10 μl dilution buffer were also added to untreated cells and into wells without cells. Cell culture dishes were incubated for 72 h at 37° C. under 5% CO2
# (§2) Cell proliferation/viability was determined by using the CellTiter-Blue Cell Viability assay (Promega, US) according to the instructions of the supplier.
# Series of liposomes having C/A ratios of either 0.75 or 1 were produced and loaded with siRNA as in Example 5. The cationic lipid components were CHOLGUA, CHIM, DC-CHOL, GUADACA, MPDACA, BADACA, PONA, DOTAP or DODAP. The anionic lipid was DOPA and the cholesterol content was 40 mol %, all lipid mixtures are identified in table 20. Liposomes were further supplied with 1.5 mol % DMPE-PEG2000 (Nippon Oils and Fats).
# (§3) HeLa cells were grown and maintained as in Example 2 and mouse serum (SIGMA-Aldrich) was added directly to the cells for 120-min. Following that, the liposomes were added to the cells, incubation was continued for 72 h and cell viability was determined as above. The efficacy of transfection is expressed here as IC50 (in nM of siRNA) as in Example 5.
# HeLa cells [2] = experiment: Serum resistant transfection, DACA or cholesterol based cationic lipids with carboxyl lipids, HeLa (Example 14); details: for serum-resistant transfection of HeLa cells: liposomes of the cationic lipid with carboxyl lipid DOGS and cholesterol, PLK-1 siRNA, 10% mouse serum; for transfection of HeLa cells in the presence of mouse serum: liposomes of the cationic lipid with carboxyl lipids CHEMS, DMGS or DOGS, 20 or 40 mol % cholesterol
# Experimental: All liposomes were loaded with PLK-1 siRNA, an oligonucleotide capable of inhibiting the production of the cell cycle kinase PLK-1 and successful transfection was measured by inhibition of cell viability of the test cells (see also Haupenthai et al., int. J. Cancer (2007), 121:206-210. Unspecific inhibition of the cell viability, that is, cytotoxic effects, were monitored by control preparations comprising a non-targeting siRNA of the same general composition and in the same amounts.
# The transfection of cells was followed in regular cell culture medium or with the additional presence of 10% mouse serum, a potent inhibitor of cellular uptake for many amphoteric liposomes. The efficacy of transfection is expressed as IC50, the concentration needed to achieve a 50% inhibition of the cell viability.
# The ratio between the IC50 in regular medium and the IC50 upon addition of mouse serum is used as a metric for the inhibition of the cellular uptake by mouse serum. This ratio is 5 or higher for liposomes without specific targeting properties. It is 5 or lower for the liposomes of this invention; that is liposomes comprising charged imino groups in combination with negatively charged lipids.
# Series of liposomes having systematically varied ratios between the cationic and anionic lipid components were produced and loaded with siRNA as in Example 5. The cationic lipid components were CHOLGUA, CHIM, DC-CHOL, TC-CHOL, GUADACA, MPDACA, BADACA end PDAGA. The anionic lipids were CHEMS, DMGS or DOGS and the cholesterol content was either 20 or 40 mol %, all lipid mixtures are identified in the data tables. Liposomes having a ratio of the cationic: anionic lipid of 1 or greater (C/A>=1) were further supplied with 1.5 mol % DMPE-PEG2000 (Nippon Oils and Fats).
# as §3, with “120 min.” for “120-min.”, “The highest concentrations of liposomes were 40 nM and 36 nM for experiments in the absence or presence of mouse serum, respectively. The” for “The”, “nM” for “nM of”
# HeLa cells [3] = experiment: Criticality of the guanido head group, HeLa proliferation IC50 with and without sera (Example 6); details: mixtures comprising an excess of the anionic lipid CHEMS, 20% cholesterol
# Experimental: as §1, §2
# Series of liposomes having systematically varied ratios between the cationic and anionic lipid components were produced and loaded with siRNA as in Example 5. The cationic lipid components were PONA, PONamine and PONammonium, the anionic lipid was CHEMS and the cholesterol content was fixed to 20 mol %. […]
# HeLa cells were grown and maintained as in Example 2 and sera of human or mice origin (SIGMA-Aldrich) was added directly to the cells for 120 min. Following that, the liposomes were added to the cells in concentrations between 50 pM and 50 nM, incubation was continued for 72 h and cell viability was determined as above. […]
SMILES,transfection of HeLa cells in the presence of serum (HeLa cells [1]),serum-resistant transfection of HeLa cells (HeLa cells [2]),transfection of HeLa cells in the presence of mouse serum (HeLa cells [2]),transfection activity in the presence of sera (HeLa cells [3])
"CC(C)CCC[C@@H](C)[C@H]1CC[C@H]2[C@@H]3CCC4CC(OC(=O)NCCCn5ccnc5)CC[C@]4(C)[C@H]3CC[C@]12C (some centres unmarked) [CHIM, reference compound]",did not result in any transfection in the presence of serum,–,–,–
CC(C)CCC[C@@H](C)[C@H]1CC[C@H]2[C@@H]3CC=C4C[C@@H](OC(=O)NCCNC(=N)N)CC[C@]4(C)[C@H]3CC[C@]12C [CHOLGUA],remain potent transfectants even in the presence of mouse serum,best serum-resistant transfection,remain potent transfectants even in the presence of mouse serum,–
"CC(C)CCC[C@@H](C)[C@H]1CC[C@H]2[C@@H]3CC=C4C[C@@H](OC(=O)NCCN(C)C)CC[C@]4(C)[C@H]3CC[C@]12C [DC-CHOL, reference compound]",did not result in any transfection in the presence of serum,"still active in the absence, but no longer in the presence of mouse serum",–,–
"CCCCCCCC/C=C/CCCCCCCC(=O)NC(CCNC(=N)N)C(=O)NCCCCCCCCCCCCCCCC (centres unmarked) [PONA, palmitoyl-oleoyl-nor-arginine]",resulted in serum-resistant transfection; also recorded: remain potent transfectants even in the presence of mouse serum,–,remain potent transfectants even in the presence of mouse serum,–
CCCCCCCC/C=C/CCCCCCCC(=O)NC(CCN)C(=O)NCCCCCCCCCCCCCCCC (centres unmarked) [PONamine],resulted in serum-resistant transfection,–,–,–
CCCCCCCC/C=C/CCCCCCCC(=O)NC(CC[N+](C)(C)C)C(=O)NCCCCCCCCCCCCCCCC (centres unmarked) [PONammonium],not PONammonium resulted in serum-resistant transfection,–,–,remained inactive in the presence of sera
